Here are results for 19 molecules from US6656956B2, “Benzimidazole derivatives, processes for preparing them and their use as pharmaceutical compositions” (Boehringer Ingelheim Pharma KG, priority 2001, dated 2003).

Counter-ions that a name gives are not always drawn.

This test addresses T1, rh beta tryptase (Homo sapiens, UniProt Q15661).
T1 construct: purchased Promega
The test can be described thus: tryptase inhibition in vitro test (cleavage of N-p-tosyl-Gly-Pro-Lys-para-nitroaniline, p-nitroaniline measured at 405 nm). Format: biochemical. The following applies: rh beta tryptase 0.91 U/ml, substrate 0.6 mM, Tris HCl buffer with calcium and heparin, pH 7.4, 37° C., 5 minutes incubation; read-out: Tryptase-inhibiting activity. How it is done:
The compounds according to the invention are characterised by their tryptase-inhibiting activity. This ability to inhibit tryptase was investigated using the test described below.
The measurement is carried out in Tris HCl buffer (100 mM), which additionally contains calcium (5 mM) and heparin ([…]), at pH 7.4. The standard used is rh beta tryptase which may be obtained commercially from Promega, for example. The substrate used is N-p-tosyl-Gly-Pro-Lys-para-nitroaniline in a concentration of 0.6 mM. The substrate is digested with tryptase to form p-nitroaniline which can be measured at 405 nm. Usually, an incubation period of 5 minutes and an incubation temperature of 37° C. are chosen. The enzyme activity used is 0.91 U/ml. The measurements are carried out in an Autoanalyser (Cobas Bio) made by Hofmann LaRoche. The potential inhibitory substances are used in concentrations of 10 μM in the screening, the inhibition of the tryptase being given in percent. The IC50 is determined at over 70% inhibition (concentration at which 50% of the enzyme activity is inhibited). After 5 minutes' pre-incubation of the potential inhibitory substances, the substrate is added to start the reaction, the formation of p-nitroaniline being taken as a measurement of the enzyme activity after 5 minutes, after testing the linearity.

T1 sequence (Q15661 31-275): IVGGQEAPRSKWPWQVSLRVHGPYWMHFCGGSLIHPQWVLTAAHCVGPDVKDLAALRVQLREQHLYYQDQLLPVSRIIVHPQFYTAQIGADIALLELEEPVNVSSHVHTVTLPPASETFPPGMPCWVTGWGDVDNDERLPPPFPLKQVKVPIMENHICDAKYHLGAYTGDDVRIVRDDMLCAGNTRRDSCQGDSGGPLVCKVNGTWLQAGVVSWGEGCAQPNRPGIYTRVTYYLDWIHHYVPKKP

Consider `Cn1c(CCc2ccc(C(=N)N)cc2)nc2cc(N(Cc3ccccc3)C(=O)CN3CCC(Nc4ccccn4)CC3)ccc21` [Example 57, N-{2-[2-(4-Amidinophenyl)-ethyl]-1-methyl-benzimidazol-5-yl}-N-[benzyl]-2-[4-(2-pyridylamino)-piperid-1-yl]-acetamide, dihydrochloride], for which the IC50 lay in the range of 4 to 30 nM.
As to `CN(C(=O)CN1CCC(Nc2ccc3ccccc3c2)CC1)c1ccc2c(c1)nc(CCc1ccc(C(=N)N)cc1)n2C` [Example 30, N-{2-[2-(4-Amidinophenyl)-ethyl]-1-methyl-benzimidazol-5-yl}-N-methyl-2-[4-(2-naphthylamino)-piperid-1-yl]-acetamide, dihydrochloride], the IC50 was in the range of 0.5 to 3 nM.
To `COc1ccc(NC2CCN(CC(=O)N(Cc3cccc4ccccc34)c3ccc4c(c3)nc(CCc3ccc(C(=N)N)cc3)n4C)CC2)cc1` [Example 14, N-{2-[2-(4-Amidinophenyl)-ethyl]-1-methyl-benzimidazol-5-yl}-N-[naphth-1-ylmethyl]-2-[4-(4-methoxyphenylamino)-piperid-1-yl]-acetamide, dihydrochloride] belongs 4 to 30 nM.
For `CN(c1ccccn1)C1CCN(CC(=O)N(Cc2cccc3ccccc23)c2ccc3c(c2)nc(CCc2ccc(C(=N)N)cc2)n3C)CC1` [Example 19, N-{2-[2-(4-Amidinophenyl)-ethyl]-1-methyl-benzimidazol-5-yl}-N-[naphth-1-ylmethyl]-2-[4-(2-pyridyl-N-methyl-amino)-piperid-1-yl]-acetamide, dihydrochloride], the IC50 was 4 to 30 nM.
The value for `CN(C(=O)CN1CCC(Nc2ccccc2F)CC1)c1ccc2c(c1)nc(CCc1ccc(C(=N)N)cc1)n2C` [Example 36, N-{2-[2-(4-Amidinophenyl)-ethyl]-1-methyl-benzimidazol-5-yl}-N-methyl-2-[4-(2-fluorophenylamino)-piperid-1-yl]-acetamide, dihydrochloride] was 0.5 to 3 nM; that for `CN(C)c1ccc(NC2CCN(CC(=O)N(Cc3cccc4ccccc34)c3ccc4c(c3)nc(CCc3ccc(C(=N)N)cc3)n4C)CC2)cc1` [Example 13, N-{2-[2-(4-Amidinophenyl)-ethyl]-1-methyl-benzimidazol-5-yl}-N-[naphth-1-ylmethyl]-2-[4-(4-dimethylaminophenyl-amino)-piperid-1-yl]-acetamide, trihydrochloride] was 4 to 30 nM.
The value for `Cn1c(CCc2ccc(C(=N)N)cc2)nc2cc(N(Cc3cccc4ccccc34)C(=O)CN3CCC(Cc4ccccn4)CC3)ccc21` [Example 20, N-{2-[2-(4-Amidinophenyl)-ethyl]-1-methyl-benzimidazol-5-yl}-N-[naphth-1-ylmethyl]-2-[4-(2-pyridylmethyl)-piperid-1-yl]-acetamide, dihydrochloride] was 4 to 30 nM; that for `Cn1c(CCc2ccc(C(=N)N)cc2)nc2cc(N(Cc3ccccc3)C(=O)CN3CCC(Nc4ccccc4F)CC3)ccc21` [Example 59, N-{2-[2-(4-Amidinophenyl)-ethyl]-1-methyl-benzimidazol-5-yl}-N-benzyl-2-[4-(2-fluorophenylamino)-piperid-1-yl]-acetamide, dihydrochloride] was 0.5 to 3 nM; that for `Cn1c(CCc2ccc(C(=N)N)cc2)nc2cc(N(Cc3cccc4ccccc34)C(=O)CN3CCC(Nc4cccc(Cl)c4)CC3)ccc21` [Example 11, N-{2-[2-(4-Amidinophenyl)-ethyl]-1-methyl-benzimidazol-5-yl}-N-[naphth-1-ylmethyl]-2-[4-(3-chlorophenylamino)-piperid-1-yl]-acetamide, dihydrochloride] was 0.5 to 3 nM.
To `Cn1c(CCc2ccc(C(=N)N)cc2)nc2cc(N(Cc3cccc4ccccc34)C(=O)CN3CCC(Nc4cccnc4)CC3)ccc21` [Example 26, N-{2-[2-(4-Amidinophenyl)-ethyl]-1-methyl-benzimidazol-5-yl}-N-[naphth-1-ylmethyl]-2-[4-(3-pyridylamino)-piperid-1-yl]-acetamide, dihydrochloride] belongs 0.5 to 3 nM.
In the case of `Cn1c(CCc2ccc(C(=N)N)cc2)nc2cc(N(Cc3ccc(C(C)(C)C)cc3)C(=O)CN3CCC(Nc4ccccn4)CC3)ccc21` [Example 3, N-{2-[2-(4-Amidinophenyl)-ethyl]-1-methyl-benzimidazol-5-yl}-N-(4-tert-butylphenylmethyl)-2-[4-(2-pyridylamino)-piperid-1-yl]-acetamide, Dihydrochloride], the IC50 lay in the range of 4 to 30 nM.
The value for `CN(C(=O)CN1CCC(Nc2ccc(C(F)(F)F)cc2Br)CC1)c1ccc2c(c1)nc(CCc1ccc(C(=N)N)cc1)n2C` [Example 67, N-{2-[2-(4-Amidinophenyl)-ethyl]-1-methyl-benzimidazol-5-yl}-N-methyl-2-[4-(2-bromo-4-trifluoromethylamino)-piperid-1-yl]-acetamide, dihydrochloride] was 4 to 30 nM.
To `Cn1c(CCc2ccc(C(=N)N)cc2)nc2cc(N(Cc3cccc4ccccc34)C(=O)Nc3ccccc3)ccc21` [Example 72, N-{2-[2-(4-Amidinophenyl)-ethyl]-1-methyl-benzimidazol-5-yl}-N-[naphth-1-ylmethyl]-N′-phenyl-urea, hydrochloride] belongs 31 to 1000 nM; to `CN(C(=O)CN1CCC(Nc2ccc(Cl)cc2Br)CC1)c1ccc2c(c1)nc(CCc1ccc(C(=N)N)cc1)n2C` [Example 65, N-{2-[2-(4-Amidinophenyl)-ethyl]-1-methyl-benzimidazol-5-yl}-N-methyl-2-[4-(2-bromo-4-chloroamino)-piperid-1-yl]-acetamide, dihydrochloride], 0.5 to 3 nM; to `Cn1c(CCc2ccc(C(=N)N)cc2)nc2cc(N(Cc3cccc4ccccc34)C(=O)Nc3cccc4ccccc34)ccc21` [Example 75, N-{2-[2-(4-Amidinophenyl)-ethyl]-1-methyl-benzimidazol-5-yl}-N-[naphth-1-ylmethyl]-N′-(1-naphthyl)-urea, hydrochloride], 4 to 30 nM.
Turning to “N-{2-[2-(4-Amidinophenyl)-ethyl]-1-methyl-benzimidazol-5- yl}-N-[ethanecarboxylic acid]-2-[4-(2-pyridylamino)-piperid- 1-yl]-acetamide, dihydrochloride [Example 54]”, the IC50 was in the range of 4 to 30 nM.
To `Cn1c(CCc2ccc(C(=N)N)cc2)nc2cc(N(Cc3cccc4ccccc34)C(=O)CN3CCC(Nc4ccccn4)CC3)ccc21` [Example 6, N-{2-[2-(4-Amidinophenyl)-ethyl]-1-methyl-benzimidazol-5-yl}-N-[naphth-1-ylmethyl]-2-[4-(2-pyridylamino-piperid-1-yl]-acetamide, dihydrochloride] belongs 0.5 to 3 nM.
The value for `Cn1c(CCc2ccc(C(=N)N)cc2)nc2cc(N(Cc3cccc4ccccc34)C(=O)CN3CCC(Nc4ccc(Cl)cc4)CC3)ccc21` [Example 10, N-{2-[2-(4-Amidinophenyl)-ethyl]-1-methyl-benzimidazol-5-yl}-N-[naphth-1-ylmethyl]-2-[4-(4-chlorophenylamino)-piperid-1-yl]-acetamide, dihydrochloride] was 0.5 to 3 nM; that for `Cn1c(CCc2ccc(C(=N)N)cc2)nc2cc(N(Cc3cccc4ccccc34)C(=O)NCc3ccccc3)ccc21` [Example 5, N-{2-[2-(4-Amidinophenyl)-ethyl]-1-methyl-benzimidazol-5-yl}-N-(naphth-1-ylmethyl)-N′-benzyl-urea, Hydrochloride] was 31 to 1000 nM.
